Experimental data taken from US11857638B2, “Quinone-containing conjugates” (PROMEGA CORPORATION, priority 2018, dated 2024).

Key:
human diaphorase = human diaphorase (Homo sapiens, UniProt P15559); assay: Non-cellular reductive release of luciferin (luciferin detection reagent with reductase and NADH); type: biochemical; details: after 1 hour, FIG. 3
Source text: (§1) This property may provide an additional advantage in ADCs where it is critical that payload is not released outside of target cells. The observations are as follows. When D-luciferin is derivatized on the 6′ hydroxyl by addition of the TMQ linker, its activity as a substrate for luciferase is blocked (PBI-4312), but free D-luciferin that is fully active with luciferase is readily released
[drawing 143] from a luciferin-TMQ derivative when subjected to reducing conditions inside or outside of a cell. However, release of D-luciferin from a protein-TMQ-luciferin conjugate by an extracellular reductive mechanism was substantially diminished compared to luciferin-TMQ. In other words, the protein moiety of the conjugate stabilizes the luciferin payload against reductive release from the TMQ linker in a non-cellular environment. Non-cellular reducing conditions include an aqueous reducing agent solution (e.g. DTT) or a reductase reaction mixture (FIG. 3). This was true for two conjugates with a luciferin payload as well as a luciferin-TMQ conjugate with bovine serum albumin (BSA). Whereas the reaction conditions produced substantial amounts of light with PBI-4312 (>900,000 RLU after 1 hour), only minimal signals were produced from similar amounts of the protein conjugates (<800 RLUs after 1 hour). […]

luciferase = assay: Activity as a substrate for luciferase; type: biochemical; details: D-luciferin derivatized on the 6′ hydroxyl with TMQ linker
Source text: as §1

human diaphorase, sequence (P15559 whole entry): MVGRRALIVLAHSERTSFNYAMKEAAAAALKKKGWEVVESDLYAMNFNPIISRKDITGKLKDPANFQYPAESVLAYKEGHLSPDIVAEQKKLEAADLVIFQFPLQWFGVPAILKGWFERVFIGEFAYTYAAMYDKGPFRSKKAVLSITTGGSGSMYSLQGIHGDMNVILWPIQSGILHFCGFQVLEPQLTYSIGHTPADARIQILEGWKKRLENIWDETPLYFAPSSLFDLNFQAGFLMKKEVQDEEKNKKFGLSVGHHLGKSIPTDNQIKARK

Q: Which results are given for CC1=C(C)C(=O)C(C(C)(C)CC(=O)N(C)CCN(C)C(=O)Oc2ccc3nc(C4=N[C@@H](C(=O)O)CS4)sc3c2)=C(C)C1=O [PBI-4312]?
A: light produced (luciferin luminescence) (human diaphorase): > 900,000 RLU; activity as a substrate for luciferase (luciferase): blocked
